Experimental data reported in the NIST ThermoML archive (doi:10.1021/acs.jced.7b00657).
± gives the expanded uncertainty stated by the source.

Key:
[1] = refractive index (Na D-line) (dimensionless); settings: 293 K; 101.33 kPa; Liquid; Standard Abbe refractometry
[2] = 298 K; 101.33 kPa; Liquid; Vibrating tube method

Work on `FC(F)(F)C(F)(F)C(F)(F)C(F)(F)C(F)(F)C(F)(F)C(F)(F)C(F)(F)F` [octadecafluorooctane] yielded a refractive index [1] of 1.268 ± 0.001 and a mass density [2] of 1756 ± 1 kg/m3.
